Experimental data reported in patent EP4789665A1, “TREATMENT OF HIS HYPORESPONDERS” (NewAmsterdam Pharma B.V., priority 2021, dated 2023).
“And” between values parts separate entries of the source, which are not always exact repeats. Identical values can stand only once.

Target: T1, CETP (Homo sapiens, UniProt P11597)
T1 construct: endogenous in cells; host or cells: trial patients (in vivo, circulating plasma CETP)
T1 sequence (P11597 18-493): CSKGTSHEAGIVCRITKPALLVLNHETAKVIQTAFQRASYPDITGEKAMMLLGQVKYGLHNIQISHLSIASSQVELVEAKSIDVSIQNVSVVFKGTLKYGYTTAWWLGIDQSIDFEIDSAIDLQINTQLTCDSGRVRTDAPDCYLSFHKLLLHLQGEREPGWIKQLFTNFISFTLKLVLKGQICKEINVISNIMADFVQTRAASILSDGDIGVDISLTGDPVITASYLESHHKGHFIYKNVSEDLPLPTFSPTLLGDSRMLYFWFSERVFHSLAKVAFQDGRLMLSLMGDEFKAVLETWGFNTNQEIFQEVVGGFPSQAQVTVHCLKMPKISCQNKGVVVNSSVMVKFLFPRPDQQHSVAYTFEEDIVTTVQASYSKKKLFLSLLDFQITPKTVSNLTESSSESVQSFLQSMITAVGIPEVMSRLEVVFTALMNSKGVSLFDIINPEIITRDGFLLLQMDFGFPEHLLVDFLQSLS
Assay: Placebo-controlled, double-blind, randomized phase 2 study of obicetrapib as adjunct to high-intensity statin therapy: lipoprotein lipid and apolipoprotein responses
Type: in vivo
Conditions: for LDL-C by PUC, % Change from Baseline LS mean (95% CI) / LDL-C reduced from baseline (Friedewald formula) / Apo B reduced by / Lp(a) reduced by / non-HDL-C reduced by: 8 weeks; for LDL-C by PUC, % Change from Baseline LS mean (95% CI) / Apo A1 Week 8 change, LS Mean ± SE / Apo B Week 8 change, LS Mean ± SE / HDL-C Week 8 change, LS Mean ± SE / LDL-C (Martin-Hopkins) Week 8 change, LS Mean ± SE / Lp(a) Week 8 change, LS Mean ± SE / Non-HDL-C Week 8 change, LS Mean ± SE / TG Week 8 change, LS Mean ± SE / VLDL-C Week 8 change, LS Mean ± SE / LDL-C (PUC) Week 8 change, LS Mean ± SE / LDL-C reduced from baseline (Friedewald formula) / Apo B reduced by / Lp(a) reduced by / non-HDL-C reduced by: adjunct to high-intensity statin; for LDL-C by PUC, % Change from Baseline LS mean (95% CI): Table 3; for Apo A1 Week 8 change, Median (min, max) / LDL-C (Martin-Hopkins) Week 8 change, Median (min, max) / Lp(a) Week 8 change, Median (min, max) / TG Week 8 change, Median (min, max) / VLDL-C Week 8 change, Median (min, max): adjunct to high-intensity statin therapy; for Apo A1 Week 8 change, LS Mean ± SE / Apo B Week 8 change, LS Mean ± SE / HDL-C Week 8 change, LS Mean ± SE / LDL-C (Martin-Hopkins) Week 8 change, LS Mean ± SE / Lp(a) Week 8 change, LS Mean ± SE / Non-HDL-C Week 8 change, LS Mean ± SE / TG Week 8 change, LS Mean ± SE / VLDL-C Week 8 change, LS Mean ± SE / LDL-C by Friedewald, % Change from Baseline LS mean: MMRM; for LDL-C (PUC) Week 8 change, LS Mean ± SE: analysis of covariance model, Table 9; for ApoB, % change from Baseline Median / HDL-C, % change from Baseline Median / LDL-C by Friedewald, % Change from Baseline (median) / LDL-C by PUC, % Change from Baseline (median) / Non-HDL-C, % Change from Baseline (median): week 8, adjunct to high-intensity statin therapy; for LDL-C by Friedewald, % Change from Baseline LS mean: week 8, adjunct to high-intensity statin; for LDL-C reduced from baseline (Friedewald formula): primary analysis; for LDL-C reduced from baseline (Friedewald formula) / Apo B reduced by / Lp(a) reduced by / non-HDL-C reduced by: stated as reduction
Procedure: To evaluate the efficacy, safety, and tolerability of obicetrapib as an adjunct to high-intensity statin therapy, a placebo-controlled, double-blind, randomized, phase 2 study was carried out.
The study consisted of three arms: 1) 5 mg obicetrapib as adjunctive therapy; 2) 10 mg obicetrapib as adjunctive therapy and 3) a placebo arm. The second objective was to evaluate other lipoprotein lipid and apolipoprotein responses, safety and tolerability profiles, and plasma concentrations of obicetrapib during treatment and for several weeks of follow-up. Lastly, this study aimed to determine if different quantitative measures of LDL-C levels produced differences in the treatment effects of CETP inhibition.
This randomised, double-blind, placebo-controlled, parallel-group phase 2 trial was conducted in male and female patients (18-75 years), treated with high-intensity statin therapy, with LDL-C levels >70 mg/DL and TG levels < 400 mg/dL. Key exclusion criteria were patients with BMI > 40 kg/m; Significant cardiovascular disease; HbA1c > 10%; Uncontrolled hypertension; Active muscle disease; GFR < 60 ml/min; Hepatic dysfunction; Anemia; History of malignancy; Alcohol abuse; Treatment with investigational product; Treatment with PCSK9 inhibitor; Clinically significant condition; and/or prior exposure to a CETP inhibitor. Patients were recruited at 19 sites in the United States. The trial was approved by Independent Ethics Committees, and each patient provided written informed consent. The trial was conducted in accordance with the principles of the Declaration of Helsinki and Good Clinical Practice Guidelines and the protocol was registered on ClinicalTrials.gov (NCT04753606).
The screening period for this study took up to 2-weeks. Afterwards patients were randomized to placebo, 5 mg obicetrapib or 10 mg obicetrapib for an 8-week treatment period. After the treatment period, patients continued for a 4-week safety follow-up and a 15-week PK follow-up.
Patients were randomly assigned to receive one of the three treatments investigative treatments. All treatments were to be taken once daily with food for 8 weeks. Safety was assessed throughout the trial by monitoring adverse events and concomitant medication use, 12-lead electrocardiograms (ECGs), vital signs, laboratory safety assessments and physical examinations. Additional assessments included salivary cortisol, plasma aldosterone, high-sensitivity C-reactive protein (hsCRP) and endothelin 1.
Efficacy assessments included fasted lipid profiles including total cholesterol (TC), HDL-C, LDL-C, triglycerides, apolipoprotein B (ApoB), and derived parameters.
Total cholesterol and triglycerides were measured by homogenous enzymatic assay using a Modular analyser (cholesterol oxidase peroxidase-peroxidase aminophenazone phenol [CHOP-PAP]) method and a glycerol phosphate oxidase [GPO-PAP] method, respectively. Apolipoprotein B was measured by immunoturbidimetry using reagents from Rolf Greiner Biochemica (Germany) and N apoprotein standard serum from Siemens (Germany). LDL particle size was determined by gradient gel electrophoresis. HDL fraction was separated by a combined ultracentrifugation-precipitation method (β-quantification). HDL-2 and HDL-3 fractions were then separated by further ultracentrifugation. Total-cholesterol in HDL, HDL 2 and HLD-3 fractions, free cholesterol in HDL fraction, triglycerides in HDL fraction and phospholipids in plasma and HDL-fraction were measured using enzymatic methods and reagents from Diasys Diagnostics (Germany). The measurements were performed on an Olympus AU600 automatic analyzer and were calibrated using secondary standards from Roche Diagnostics (total-cholesterol, triglycerides) and Diasys Diagnostics (free cholesterol, phospholipids), respectively. Esterified cholesterol was calculated as the difference between total-cholesterol and free cholesterol.
The primary outcome measure was LDL-C (percent change). […]

[1] = 5 mg once daily for 8 weeks as adjunct to high-intensity statin therapy
[2] = 5 mg once daily, listed as obicetrapib
[3] = 10 mg once daily for 8 weeks as adjunct to high-intensity statin therapy
[4] = 10 mg once daily, listed as obicetrapib

## CCOC(=O)N1c2ccc(C(F)(F)F)cc2[C@@H](N(Cc2cc(C(F)(F)F)cc(C(F)(F)F)c2)c2ncc(OCCCC(=O)O)cn2)C[C@H]1CC [Obicetrapib, (2R,4S)-4-{[3,5-bis(trifluoromethyl)benzyl]-[5-(3-carboxypropoxy)pyrimidin-2-yl]amino}-2-ethyl-6-trifluoromethyl-3,4-dihydro-2H-quinoline-1-carboxylic acid ethyl ester]
[1]
  ApoB, Change from Baseline Median mg/dL: -22.0 mg/dL
  ApoB, EoT Median: 65.0 mg/dL
  HDL-C, Change from Baseline Median mg/dL: 60.0 mg/dL
  HDL-C, EoT Median: 107.0 mg/dL
  LDL-C by Friedewald, EoT Median: 51.0 mg/dL
  LDL-C by PUC, EoT Median: 53.0 mg/dL
  Non-HDL-C, EoT Median: 71 mg/dL
5 mg once daily
  LDL-C by PUC, % Change from Baseline LS mean (95% CI): -37.98%
  Apo A1 Week 8 change, Median (min, max): 44.6% and 44.6 (-10.0, 87.1) %
  LDL-C (Martin-Hopkins) Week 8 change, Median (min, max): -42.5 (-80.8, 74.4) %
  Lp(a) Week 8 change, Median (min, max): -33.8 (-84.6, 93.8) %
  TG Week 8 change, Median (min, max): -11.0 (-53.3, 86.7) %
  VLDL-C Week 8 change, Median (min, max): -11.5 (-53.5, 83.3) %
  Apo A1 Week 8 change, LS Mean ± SE: 41.1 ± 3.04%
  Apo B Week 8 change, LS Mean ± SE: -22.4 ± 2.58%
  HDL-C Week 8 change, LS Mean ± SE: 122 ± 6.59%
  LDL-C (Martin-Hopkins) Week 8 change, LS Mean ± SE: -39.6 ± 3.68%
  Lp(a) Week 8 change, LS Mean ± SE: -30.9 ± 4.43%
  Non-HDL-C Week 8 change, LS Mean ± SE: -34.4 ± 3.18%
  TG Week 8 change, LS Mean ± SE: -6.63 ± 5.32%
  VLDL-C Week 8 change, LS Mean ± SE: -6.02 ± 5.24%
  LDL-C (PUC) Week 8 change, LS Mean ± SE: -35.7 ± 3.31%
  ApoB, % change from Baseline Median: -24.40% and -24.4 (-58.5, 47.4) %
  HDL-C, % change from Baseline Median: 135% and 135.4% and 135 (-26.4, 213) %
  LDL-C by Friedewald, % Change from Baseline (median): -42.90% and -42.9 (-81.9, 72.4) %
  LDL-C by PUC, % Change from Baseline (median): -41.5% and -41.45% and -41.5 (-71.2, 62.3) %
  Non-HDL-C, % Change from Baseline (median): -38.9% and -38.9 (-65.6, 66.3) %
  LDL-C by Friedewald, % Change from Baseline LS mean: -37.94% and -38.0 ± 3.49%
[2]
  TG Week 8 change, Median (min, max): -11.0%
  VLDL-C Week 8 change, Median (min, max): -11.5%
  LDL-C by PUC, % Change from Baseline (median): -41.5%
5 mg
  LDL-C reduced from baseline (Friedewald formula): 42.9%
  Apo B reduced by: 24.4%
  Lp(a) reduced by: 33.8%
  non-HDL-C reduced by: 38.9%
[3]
  ApoB, Change from Baseline Median mg/dL: -24.5 mg/dL
  ApoB, EoT Median: 58.5 mg/dL
  HDL-C, Change from Baseline Median mg/dL: 72.0 mg/dL
  HDL-C, EoT Median: 117.5 mg/dL
  LDL-C by Friedewald, EoT Median: 52.0 mg/dL
  LDL-C by PUC, EoT Median: 49.5 mg/dL
  Non-HDL-C, EoT Median: 69 mg/dL
10 mg once daily
  LDL-C by PUC, % Change from Baseline LS mean (95% CI): -44.15%
  Apo A1 Week 8 change, Median (min, max): 47.8% and 47.8 (13.5, 106) %
  LDL-C (Martin-Hopkins) Week 8 change, Median (min, max): -49.2 (-77.0, 28.1) %
  Lp(a) Week 8 change, Median (min, max): -56.5 (-85.7, 18.3) %
  TG Week 8 change, Median (min, max): -7.85 (-63.7, 129) %
  VLDL-C Week 8 change, Median (min, max): -7.90 (-44.4, 125) %
  Apo A1 Week 8 change, LS Mean ± SE: 52.3 ± 3.04%
  Apo B Week 8 change, LS Mean ± SE: -28.1 ± 2.56%
  HDL-C Week 8 change, LS Mean ± SE: 157 ± 6.54%
  LDL-C (Martin-Hopkins) Week 8 change, LS Mean ± SE: -46.9 ± 3.65%
  Lp(a) Week 8 change, LS Mean ± SE: -42.0 ± 4.33%
  Non-HDL-C Week 8 change, LS Mean ± SE: -39.9 ± 3.15%
  TG Week 8 change, LS Mean ± SE: 2.45 ± 5.27%
  VLDL-C Week 8 change, LS Mean ± SE: 3.08 ± 5.19%
  LDL-C (PUC) Week 8 change, LS Mean ± SE: -46.8 ± 3.23%
  ApoB, % change from Baseline Median: -29.75% and -29.8 (-58.4, 13.0) %
  HDL-C, % change from Baseline Median: 165% and 165 (55.1, 286) %
  LDL-C by Friedewald, % Change from Baseline (median): -45.65% and -45.7 (-78.0, 26.2) %
  LDL-C by PUC, % Change from Baseline (median): -50.8% and -50.75% and -50.8 (-76.9, 15.6) %
  Non-HDL-C, % Change from Baseline (median): -44.4% and -44.4 (-70.2, 22.5) %
  LDL-C by Friedewald, % Change from Baseline LS mean: -44.15% and -44.2 ± 3.46%
[4]
  LDL-C (Martin-Hopkins) Week 8 change, Median (min, max): -49.2%
  LDL-C by PUC, % Change from Baseline (median): -50.8%
10 mg
  LDL-C reduced from baseline (Friedewald formula): 45.7%
  Apo B reduced by: 29.8%
  Lp(a) reduced by: 56.5%
  non-HDL-C reduced by: 44.4%
10 mg, post-hoc analysis, individuals with baseline Apo B >100 mg/dL
  median Apo B reductions from baseline: 39%
